Results from ChEMBL document CHEMBL5321233, “Biological activity of 1,2,3-triazole-2-amino-1,4-naphthoquinone derivatives and their evaluation as therapeutic strategy for malaria control” (Eur J Med Chem, 2023).
Activity calls are given as the source filed them.

How the values were obtained:
[1] = Acute toxicity in Albino Swiss mouse assessed as change in relative weight of spleen at 300 mg/kg, po administered as single dose measured after 14 days; type: organism-based; settings: in vivo, 336 h, time 14 day
Plasmodium berghei [2] = assay: Antimalarial activity against Plasmodium berghei ANKA infected in Albino Swiss mouse assessed as reduction in parasitemia at 30 mg/kg, po administered for 4 consecutive days measured after day 7 relative to control; type: functional; set-up: scale not given: the % may be the effect or the level left; settings: time 7 day
Plasmodium berghei [3] = assay: Antimalarial activity against Plasmodium berghei ANKA infected in Albino Swiss mouse assessed as reduction in parasitemia at 30 mg/kg, po administered for 4 consecutive days measured after day 5 relative to control; type: functional; set-up: scale not given: the % may be the effect or the level left; settings: time 5 day
Plasmodium berghei [4] = assay: Antimalarial activity against Plasmodium berghei ANKA infected in Albino Swiss mouse assessed as half-survival time at 15 mg/kg, po administered for 4 consecutive days measured for 30 days (reference value: 16 day); type: functional; settings: time 30 day
[5] = Toxicity in Albino Swiss mouse infected with Plasmodium berghei ANKA assessed as mortality rate at 15 to 30 mg/kg, po administered for 4 consecutive days measured for 14 days relative to control; type: organism-based; settings: in vivo, dose 15-30 mg/kg, time 14 day, read-out: Activity
[6] = Acute toxicity in Albino Swiss mouse assessed as change in urine color at 300 mg/kg, po administered as single dose measured after 14 days; type: organism-based; settings: in vivo, 336 h, time 14 day
[7] = Acute toxicity in Albino Swiss mouse assessed as change in sensory function at 300 mg/kg, po administered as single dose measured after 14 days; type: organism-based; settings: in vivo, 336 h, time 14 day
[8] = Acute toxicity in Albino Swiss mouse assessed as signs of cyanosis at 300 mg/kg, po administered as single dose measured after 14 days; type: organism-based; settings: in vivo, 336 h, time 14 day
Plasmodium falciparum [9] = assay: Induction of morphological changes in chloroquine-resistant Plasmodium falciparum W2 trophozoites assessed as degraded cytoplasm by TEM analysis; type: functional, organism-based
Plasmodium berghei [10] = assay: Antimalarial activity against Plasmodium berghei ANKA infected in Albino Swiss mouse assessed as reduction in parasitemia at 15 mg/kg, po administered for 4 consecutive days measured after day 7 relative to control; type: functional; set-up: scale not given: the % may be the effect or the level left; settings: time 7 day
[11] = Acute toxicity in Albino Swiss mouse assessed as change in defecation at 300 mg/kg, po administered as single dose measured after 14 days; type: organism-based; settings: in vivo, 336 h, time 14 day
HepG2 = assay: Cytotoxicity against human HepG2 cells incubated for 24 hrs by MTT assay; type: functional
[12] = Acute toxicity in Albino Swiss mouse assessed as aggressiveness at 300 mg/kg, po administered as single dose measured after 14 days; type: organism-based; settings: in vivo, 336 h, time 14 day
Plasmodium berghei [13] = assay: Antimalarial activity against Plasmodium berghei ANKA infected in Albino Swiss mouse assessed as half-survival time at 30 mg/kg, po administered for 4 consecutive days measured for 30 days (reference value: 16 day); type: functional; settings: time 30 day
[14] = Acute toxicity in Albino Swiss mouse assessed as signs of pallor at 300 mg/kg, po administered as single dose measured after 14 days; type: organism-based; settings: in vivo, 336 h, time 14 day
[15] = Acute toxicity in Albino Swiss mouse assessed as signs of hyperemia at 300 mg/kg, po administered as single dose measured after 14 days; type: organism-based; settings: in vivo, 336 h, time 14 day
[16] = Acute toxicity in Albino Swiss mouse assessed as change in urination volume at 300 mg/kg, po administered as single dose measured after 14 days; type: organism-based; settings: in vivo, 336 h, time 14 day
[17] = Acute toxicity in Albino Swiss mouse assessed as change in diarrhea at 300 mg/kg, po administered as single dose measured after 14 days; type: organism-based; settings: in vivo, 336 h, time 14 day
[18] = Acute toxicity in Albino Swiss mouse assessed as change in relative weight of kidney at 300 mg/kg, po administered as single dose measured after 14 days; type: organism-based; settings: in vivo, 336 h, time 14 day
Plasmodium berghei [19] = assay: Antimalarial activity against Plasmodium berghei ANKA infected in Albino Swiss mouse assessed as reduction in parasitemia at 15 mg/kg, po administered for 4 consecutive days measured after day 5 relative to control; type: functional; set-up: scale not given: the % may be the effect or the level left; settings: time 5 day
[20] = Acute toxicity in Albino Swiss mouse assessed as behavioural toxicity at 300 mg/kg, po administered as single dose measured after 14 days; type: organism-based; settings: in vivo, 336 h, time 14 day
[21] = Acute toxicity in Albino Swiss mouse assessed as contortions at 300 mg/kg, po administered as single dose measured after 14 days; type: organism-based; settings: in vivo, 336 h, time 14 day
[22] = Acute toxicity in Albino Swiss mouse assessed as change in motor function at 300 mg/kg, po administered as single dose measured after 14 days; type: organism-based; settings: in vivo, 336 h, time 14 day
[23] = Cytotoxicity against African green monkey Vero cells incubated for 24 hrs by MTT assay; type: toxicity, cell-based; settings: chlorocebus sabaeus
[24] = Acute toxicity in Albino Swiss mouse assessed as signs of toxicity at 300 mg/kg, po administered as single dose measured after 14 days; type: organism-based; settings: in vivo, 336 h, time 14 day
[25] = Acute toxicity in Albino Swiss mouse assessed as change in relative weight of liver at 300 mg/kg, po administered as single dose measured after 14 days; type: organism-based; settings: in vivo, 336 h, time 14 day
[26] = Acute toxicity in Albino Swiss mouse assessed as escape reaction at 300 mg/kg, po administered as single dose measured after 14 days; type: organism-based; settings: in vivo, 336 h, time 14 day
[27] = Acute toxicity in Albino Swiss mouse assessed as congestion of globular center vein in liver at 300 mg/kg, po administered as single dose measured after 14 days by H and E staining based analysis; type: organism-based; settings: in vivo, 336 h, time 14 day
[28] = Selectivity index, ratio of CC50 for human HepG2 cells to IC50 for chloroquine-resistant Plasmodium falciparum W2 infected in human erythrocytes; type: toxicity, cell-based; settings: read-out: Ratio CC50/IC50
[29] = Acute toxicity in Albino Swiss mouse assessed as activated macrophages in spleen at 300 mg/kg, po administered as single dose measured after 14 days by H and E staining based analysis; type: organism-based; settings: in vivo, 336 h, time 14 day
[30] = Acute toxicity in Albino Swiss mouse assessed as developmment-delimiting germinal center in spleen at 300 mg/kg, po administered as single dose measured after 14 days by H and E staining based analysis; type: organism-based; settings: in vivo, 336 h, time 14 day
[31] = Acute toxicity in Albino Swiss mouse assessed as atrophic glomerulus with congested capillaries in kidney at 300 mg/kg, po administered as single dose measured after 14 days by H and E staining based analysis; type: organism-based; settings: in vivo, 336 h, time 14 day
[32] = Acute toxicity in Albino Swiss mouse assessed as distribution of hemosiderophages in parenchyma of spleen at 300 mg/kg, po administered as single dose measured after 14 days by H and E staining based analysis; type: organism-based; settings: in vivo, 336 h, time 14 day
[33] = Acute toxicity in Albino Swiss mouse assessed as acidophilic cytoplasm with micro-steatosis in liver at 300 mg/kg, po administered as single dose measured after 14 days by H and E staining based analysis; type: organism-based; settings: in vivo, 336 h, time 14 day
[34] = Acute toxicity in Albino Swiss mouse assessed as animal mortality at 300 mg/kg, po administered as single dose measured after 14 days; type: organism-based; settings: in vivo, 336 h, time 14 day
[35] = Acute toxicity in Albino Swiss mouse assessed as recurrent tubules with loss of polarity in kidney at 300 mg/kg, po administered as single dose measured after 14 days by H and E staining based analysis; type: organism-based; settings: in vivo, 336 h, time 14 day
[36] = Acute toxicity in Albino Swiss mouse assessed as mesangial cells reduction in kidney at 300 mg/kg, po administered as single dose measured after 14 days by H and E staining based analysis; type: organism-based; settings: in vivo, 336 h, time 14 day
[37] = Hemolytic activity in human red blood cells type A assessed as hemoglobin release at 500 to 1000 uM incubated for 60 mins by spectrophotometry; type: toxicity, cell-based, Erythrocyte; settings: dose 500-1000 µM, read-out: Activity
[38] = Acute toxicity in Albino Swiss mouse assessed as hyperplasia in spleen at 300 mg/kg, po administered as single dose measured after 14 days by H and E staining based analysis; type: organism-based; settings: in vivo, 336 h, time 14 day
Plasmodium falciparum [39] = assay: Induction of morphological changes in chloroquine-resistant Plasmodium falciparum W2 at early trophozoite stage assessed as rounded nucleus with degenerative changes by TEM analysis; type: functional, organism-based
[40] = Selectivity index, ratio of CC50 for African green monkey Vero cells to IC50 for chloroquine-resistant Plasmodium falciparum W2 infected in human erythrocytes; type: toxicity, cell-based; settings: read-out: Ratio CC50/IC50
[41] = Toxicity in Albino Swiss mouse infected with Plasmodium berghei ANKA assessed as animal survival at 30 mg/kg, po administered for 4 consecutive days measured for 14 days relative to control; type: organism-based; settings: in vivo, time 14 day
[42] = Acute toxicity in Albino Swiss mouse assessed as fusion of lymphoid follicles in spleen at 300 mg/kg, po administered as single dose measured after 14 days by H and E staining based analysis; type: organism-based; settings: in vivo, 336 h, time 14 day
[43] = Acute toxicity in Albino Swiss mouse assessed as granular degeneration in liver at 300 mg/kg, po administered as single dose measured after 14 days by H and E staining based analysis; type: organism-based; settings: in vivo, 336 h, time 14 day
[44] = Acute toxicity in Albino Swiss mouse assessed as acidophilic cytoplasm with macro-vacuoles in liver at 300 mg/kg, po administered as single dose measured after 14 days by H and E staining based analysis; type: organism-based; settings: in vivo, 336 h, time 14 day
Plasmodium falciparum [45] = assay: Antimalarial activity against chloroquine-resistant Plasmodium falciparum W2 infected in human erythrocytes assessed as parasite growth inhibition incubated for 48 hrs by geimsa staining based microscopy; type: functional, organism-based; settings: W2, Erythrocyte
[46] = Octanol-water partition coefficient, logP of the compound; type: physicochemical
Plasmodium falciparum [47] = assay: Induction of morphological changes in chloroquine-resistant Plasmodium falciparum W2 at early trophozoite stage assessed as development-limiting of plasma membrane by TEM analysis; type: functional, organism-based
Plasmodium falciparum [48] = assay: Induction of morphological changes in chloroquine-resistant Plasmodium falciparum W2 at early trophozoite stage assessed as development-limiting of parasitophorous vacuole membrane by TEM analysis; type: functional, organism-based
[49] = Acute toxicity in Albino Swiss mouse assessed as congestion of hepatic portal vein in liver at 300 mg/kg, po administered as single dose measured after 14 days by H and E staining based analysis; type: organism-based; settings: in vivo, 336 h, time 14 day
[50] = Acute toxicity in Albino Swiss mouse assessed as necrosis of hepatocytes at 300 mg/kg, po administered as single dose measured after 14 days by H and E staining based analysis; type: organism-based; settings: in vivo, 336 h, time 14 day
[51] = Hemolytic activity in human red blood cells assessed as hemoglobin release at 250 to 15.6 uM incubated for 60 mins by spectrophotometry; type: toxicity, cell-based, Erythrocyte; settings: dose 250-15.6 µM, read-out: Activity
Plasmodium falciparum [52] = assay: Induction of morphological changes in chloroquine-resistant Plasmodium falciparum W2 at early trophozoite stage assessed as degenerating organelles by TEM analysis; type: functional, organism-based
[53] = Acute toxicity in Albino Swiss mouse assessed as podocytes with discrete thickening of basal membrane in kidney at 300 mg/kg, po administered as single dose measured after 14 days by H and E staining based analysis; type: organism-based; settings: in vivo, 336 h, time 14 day

CCN(CC)CCCC(C)Nc1ccnc2cc(Cl)ccc12 (stereo unspecified) [CHLOROQUINE]
35.8 µM: CC50 at 24 h [23]
95%: Activity (Plasmodium berghei [19])
26 days: Survival (Plasmodium berghei [4]) | Survival (Plasmodium berghei [13])
active: Activity (Plasmodium falciparum [9])
99%: Activity (Plasmodium berghei [3])
Non-Toxic: Activity [1] | Activity [6] | Activity [7] | Activity [8] | Activity [11] | Activity [12] | Activity [14] | Activity [15] | Activity [16] | Activity [17] | Activity [18] | Activity [20] | Activity [21] | Activity [22] | Activity [24] | Activity [25] | Activity [26]
20%: mortality at 336 h [5]
98%: Activity (Plasmodium berghei [2])
92%: Activity (Plasmodium berghei [10])
> 200 µM: CC50 (HepG2)

O=C1C=C(NCCn2cc(C3(O)CCCCC3)nn2)C(=O)c2ccccc21
1340 µM: CC50 at 24 h [23]
495: selectivity ratio [40]
2.55: logP [46]
38.5%: Activity (Plasmodium berghei [3])
Toxic: Activity [27] | Activity [29] | Activity [30] | Activity [31] | Activity [32] | Activity [33] | Activity [35] | Activity [36] | Activity [38] | Activity [42] | Activity [43] | Activity [44] | Activity [49] | Activity [50] | Activity [53]
163: selectivity ratio [28]
< 40%: hemolysis at 1 h [51]
100%: survival at 336 h [41]
Non-Toxic: Activity [1] | Activity [6] | Activity [7] | Activity [8] | Activity [34] | Activity [11] | Activity [12] | Activity [14] | Activity [15] | Activity [16] | Activity [17] | Activity [18] | Activity [20] | Activity [21] | Activity [22] | Activity [24] | Activity [25] | Activity [26]
441 µM: CC50 (HepG2)
> 40%: hemolysis at 1 h, up to 1000 µM [37]
2.7 µM: IC50 (Plasmodium falciparum [45])
active: Activity (Plasmodium falciparum [39]) | Activity (Plasmodium falciparum [47]) | Activity (Plasmodium falciparum [48]) | Activity (Plasmodium falciparum [52])
38.5 days: Survival (Plasmodium berghei [13])
35%: Activity (Plasmodium berghei [2])
